ChEMBL document CHEMBL1156893, “Structure-activity relationships amongst 4-position quinoline methanol antimalarials that inhibit the growth of drug sensitive and resistant strains of Plasmodium falciparum” (Bioorg Med Chem Lett, 2010)

System: Plasmodium berghei
Assay: Antimalarial activity against Plasmodium berghei infected in ICR mice (Mus musculus) assessed as delay in mortality at 160 mg/kg, perorally for 3 days
Type: functional, organism-based
Design: dose 160 mg/kg

Structure (SMILES)	survival time
CC1C(NCC(O)c2cc(C(F)(F)F)nc3c(C(F)(F)F)cccc23)CC2CC1C2(C)C (stereo not drawn)	3 days
CSCCCNCC(O)c1cc(C(F)(F)F)nc2c(C(F)(F)F)cccc12 (stereo not drawn)	17 days
CC(C)CC(C)NCC(O)c1cc(C(F)(F)F)nc2c(C(F)(F)F)cccc12 (stereo not drawn)	2 days
OC(c1cc(C(F)(F)F)nc2c(C(F)(F)F)cccc12)C1CCCCN1 (racemic)	17 days
COCCCNCC(O)c1cc(C(F)(F)F)nc2c(C(F)(F)F)cccc12 (stereo not drawn)	9 days
COCCNCC(O)c1cc(C(F)(F)F)nc2c(C(F)(F)F)cccc12 (stereo not drawn)	15 days
CNCC(O)c1cc(C(F)(F)F)nc2c(C(F)(F)F)cccc12 (stereo not drawn)	25 days
CCCCNCC(O)c1cc(C(F)(F)F)nc2c(C(F)(F)F)cccc12 (stereo not drawn)	8 days
